Test [1] deals with T1, α4β7 integrin (Homo sapiens, UniProt P13612+P26010).
T1 construct: monitoring the capture of α4β7 integrin expressing cells; endogenous in cells; host or cells: RPMI8866
T1 sequence (P13612 34-1032): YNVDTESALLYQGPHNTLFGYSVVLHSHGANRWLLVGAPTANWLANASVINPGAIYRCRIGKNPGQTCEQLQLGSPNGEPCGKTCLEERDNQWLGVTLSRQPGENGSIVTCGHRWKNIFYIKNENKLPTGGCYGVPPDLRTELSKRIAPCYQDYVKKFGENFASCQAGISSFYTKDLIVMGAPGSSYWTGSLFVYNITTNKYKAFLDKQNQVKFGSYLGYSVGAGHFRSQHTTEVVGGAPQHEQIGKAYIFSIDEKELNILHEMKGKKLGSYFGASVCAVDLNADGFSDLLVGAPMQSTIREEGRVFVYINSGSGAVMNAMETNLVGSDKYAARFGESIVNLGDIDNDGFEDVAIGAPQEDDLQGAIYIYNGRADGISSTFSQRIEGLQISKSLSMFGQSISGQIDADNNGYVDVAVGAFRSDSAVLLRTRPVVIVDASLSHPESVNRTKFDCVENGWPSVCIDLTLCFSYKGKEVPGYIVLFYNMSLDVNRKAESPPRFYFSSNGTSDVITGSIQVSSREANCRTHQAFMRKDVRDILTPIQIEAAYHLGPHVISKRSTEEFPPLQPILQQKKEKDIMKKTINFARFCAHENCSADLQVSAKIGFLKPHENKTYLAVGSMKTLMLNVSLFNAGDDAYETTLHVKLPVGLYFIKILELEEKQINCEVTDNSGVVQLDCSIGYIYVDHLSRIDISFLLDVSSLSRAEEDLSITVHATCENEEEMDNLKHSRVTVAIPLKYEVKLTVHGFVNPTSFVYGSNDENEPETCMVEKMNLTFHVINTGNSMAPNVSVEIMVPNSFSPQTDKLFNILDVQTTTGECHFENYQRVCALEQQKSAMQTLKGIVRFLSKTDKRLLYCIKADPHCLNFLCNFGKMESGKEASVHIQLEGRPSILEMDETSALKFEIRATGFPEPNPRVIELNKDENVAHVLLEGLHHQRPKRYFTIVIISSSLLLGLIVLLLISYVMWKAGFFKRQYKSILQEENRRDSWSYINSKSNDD
T1 sequence (P26010 20-798): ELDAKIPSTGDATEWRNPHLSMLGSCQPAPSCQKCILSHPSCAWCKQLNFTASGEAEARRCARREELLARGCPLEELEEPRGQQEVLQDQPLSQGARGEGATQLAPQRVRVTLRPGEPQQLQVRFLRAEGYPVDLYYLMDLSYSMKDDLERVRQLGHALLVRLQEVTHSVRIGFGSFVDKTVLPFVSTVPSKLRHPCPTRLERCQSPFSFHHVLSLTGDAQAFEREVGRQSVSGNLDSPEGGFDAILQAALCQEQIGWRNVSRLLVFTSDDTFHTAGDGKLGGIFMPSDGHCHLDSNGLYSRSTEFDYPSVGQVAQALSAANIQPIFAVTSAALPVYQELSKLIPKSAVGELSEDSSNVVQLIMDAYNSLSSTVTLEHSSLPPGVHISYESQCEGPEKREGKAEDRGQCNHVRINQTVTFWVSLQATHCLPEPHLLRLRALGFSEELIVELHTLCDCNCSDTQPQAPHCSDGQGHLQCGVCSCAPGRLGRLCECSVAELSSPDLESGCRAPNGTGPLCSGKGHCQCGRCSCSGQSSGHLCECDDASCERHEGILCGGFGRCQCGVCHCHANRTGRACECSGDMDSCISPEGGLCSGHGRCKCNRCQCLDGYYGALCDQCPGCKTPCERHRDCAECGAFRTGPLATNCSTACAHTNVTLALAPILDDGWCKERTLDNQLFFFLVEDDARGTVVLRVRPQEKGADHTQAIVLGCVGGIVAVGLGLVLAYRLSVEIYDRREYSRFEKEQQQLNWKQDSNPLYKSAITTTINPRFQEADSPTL
The experiment in a line: α4β7 Integrin Cell Capture Assay. Conditions: capture of α4β7 integrin expressing RPM18866 cells on MadCAM-1 extracellular domain-coated plate. It is filed as cell-based. The protocol: The potency of inhibitors in preventing α4β7 integrin interaction with MadCAM-1 was measured by monitoring the capture of α4β7 integrin expressing cells on a recombinant MadCAM-1 extracellular domain-coated plate.
384-well plates (Corning 3702) were coated with MadCAM-1 extracellular domain by dispensing 20 μL of MAdCAM-1 at 1.0 μg/mL per well and incubating overnight at 4° C. The plates were then washed with PBS and blocked with 3% BSA for 2 hours before being washed again.
(§1) RPM18866 cells were spun down and re-suspended in assay medium (DMEM+0.5% FBS+0.5 mM MnCl2) at a density of 0.5×10^6 cells/mL. The cells were then dispensed (60 μL/well) to a 384-well plate (Greiner 781280) that was previously spotted with 60 nL of test compound per well. The plates were incubated at 37° C. for 1 hour. 50 μL of cells were transferred to the blocked, MadCAM-1-coated plates and incubated for 30 minutes at 37° C. 10 μL of 12% glutaraldehyde containing Hoechst 33342 (0.06 mg/mL) was added to the cells (2% glutaraldehyde and 0.01 mg/mL final concentrations). The plates were incubated for 90 minutes at room temperature. The plates were then washed 3 times with 70 μL of PBS per well and imaged on a Cellomics ArrayScan instrument. The cells that were bound to the plate were counted and plotted against the compound concentration to determine the EC50 of the test compounds.

Test [2] concerns the target T2, α4β1 integrin (Homo sapiens, UniProt P05556+P13612).
T2 construct: monitoring the capture of α4β1 expressing cells; endogenous in cells; host or cells: Jurkat
The experiment in a line: α4β1 Cell Capture Assay. It counts as cell-based. Conditions: capture of α4β1 expressing Jurkat cells on VCAM-1 extracellular domain-coated plate. The procedure:
The potency of inhibitors in preventing α4β1 integrin interaction with VCAM-1 was measured by monitoring the capture of α4β1 expressing cells to a recombinant VCAM-1 extracellular domain-coated plate.
384-well plates (Corning 3702) were coated with VCAM-1 extracellular domain by dispensing 20 μL of VCAM-1 at 0.5 μg/ml per well and incubating overnight at 4° C. The plates were then washed with PBS and blocked with 3% BSA for 2 hours before being washed again.
as §1, with “Jurkat cells” for “RPM18866 cells”, “0.5×10^6 cells/ml.” for “0.5×10^6 cells/mL.”, “blocked, VCAM-1-coated” for “blocked, MadCAM-1-coated”, “10 μl” for “10 μL”, “0.01 mg/ml Hoechst 33342” for “0.01 mg/mL”

This is an account of results in patent publication US11578069B2, “Compounds for inhibition of α4 β7 integrin” (Gilead Sciences, Inc., priority 2019, dated 2023).

Each structure is given as a SMILES string.

T2 sequence (P05556 21-798, one chain of several): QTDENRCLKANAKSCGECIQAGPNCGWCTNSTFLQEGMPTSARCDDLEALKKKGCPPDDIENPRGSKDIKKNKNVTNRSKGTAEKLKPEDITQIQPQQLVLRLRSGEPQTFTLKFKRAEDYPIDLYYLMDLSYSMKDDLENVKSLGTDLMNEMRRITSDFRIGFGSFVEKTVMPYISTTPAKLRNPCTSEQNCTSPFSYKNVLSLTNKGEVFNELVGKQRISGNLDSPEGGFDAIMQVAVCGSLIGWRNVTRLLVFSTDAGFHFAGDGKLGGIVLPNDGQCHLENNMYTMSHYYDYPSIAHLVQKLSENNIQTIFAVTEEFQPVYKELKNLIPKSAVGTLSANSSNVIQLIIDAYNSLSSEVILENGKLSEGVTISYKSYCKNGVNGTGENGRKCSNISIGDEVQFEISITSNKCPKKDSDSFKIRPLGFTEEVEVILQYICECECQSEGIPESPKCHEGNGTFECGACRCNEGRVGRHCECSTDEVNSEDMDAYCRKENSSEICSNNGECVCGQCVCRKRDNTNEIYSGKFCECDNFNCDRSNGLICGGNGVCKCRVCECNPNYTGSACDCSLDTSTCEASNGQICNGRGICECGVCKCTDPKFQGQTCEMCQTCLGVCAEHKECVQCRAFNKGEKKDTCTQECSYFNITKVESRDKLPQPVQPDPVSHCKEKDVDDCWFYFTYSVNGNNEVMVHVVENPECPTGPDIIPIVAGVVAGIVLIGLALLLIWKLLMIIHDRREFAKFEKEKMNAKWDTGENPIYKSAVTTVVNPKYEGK

With `Cc1cc(N2CCOC[C@@H]2C(F)(F)F)cc(F)c1C(=O)N[C@@H](Cc1ccc(-n2c(=O)c3c(n(C)c2=O)COC3)cc1)C(=O)O` [Example 66, (S)-2-(2-fluoro-6-methyl-4-((R)-3-(trifluoromethyl)morpholino)benzamido)-3-(4-(1-methyl-2,4-dioxo-1,2,5,7-tetrahydrofuro[3,4-d]pyrimidin-3(4H)-yl)phenyl)propanoic acid], the EC50 (as a rule, the concentration giving half of the maximal effect) in test [1] (Table 1) was 0.1 nM; in test [2] (Table 1), 4.8 nM.
In the case of `Cn1c(=O)n(-c2ccc(C[C@H](NC(=O)c3c(F)cc(N4CCOC[C@@H]4C(F)(F)F)cc3F)C(=O)O)cn2)c(=O)c2ccncc21` [Example 13, (S)-2-(2,6-difluoro-4-((R)-3-(trifluoromethyl)morpholino)benzamido)-3-(6-(1-methyl-2,4-dioxo-1,4-dihydropyrido[3,4-d]pyrimidin-3(2H)-yl)pyridin-3-yl)propanoic acid], the EC50 in test [1] (Table 1) stood at 0.8 nM; in test [2] (Table 1), 38.9 nM.
For the compound `Cc1cc(N2CCOC[C@@H]2C(F)(F)F)cc(F)c1C(=O)N[C@@H](Cc1ccc(-n2c(=O)c3c(n(C)c2=O)CCOC3)nc1)C(=O)O` [Example 68, (S)-2-(2-fluoro-6-methyl-4-((R)-3-(trifluoromethyl)morpholino)benzamido)-3-(6-(1-methyl-2,4-dioxo-1,5,7,8-tetrahydro-2H-pyrano[4,3-d]pyrimidin-3(4H)-yl)pyridin-3-yl)propanoic acid], the results for the 50% effective concentration (EC50) in test [1] (Table 1) and in test [2] (Table 1) were 0.3 nM and 14.9 nM, respectively.
Consider `Cc1cc(N2CCOC[C@@H]2C(F)(F)F)cc(F)c1C(=O)N[C@@H](Cc1ccc(-c2nc(C)c(C)n(C)c2=O)c(Cl)c1)C(=O)O` [Example 7, (S)-3-(3-chloro-4-(4,5,6-trimethyl-3-oxo-3,4-dihydropyrazin-2-yl)phenyl)-2-(2-fluoro-6-methyl-4-((R)-3-(trifluoromethyl)morpholino)benzamido)propanoic acid], for which the EC50 in test [1] (Table 1) was 0.5 nM; in test [2] (Table 1) it was 15.3 nM.
`Cc1cc(N2CCOC[C@@H]2C(F)(F)F)cc(F)c1C(=O)N[C@@H](Cc1ccc(-n2c(=O)c3ccncc3n(C)c2=O)c(C(F)(F)F)c1)C(=O)O` (atropisomer, axis not shown) [Example 89]: the EC50 in test [1] (Table 2) came out at 0.6 nM; in test [2] (Table 2) it was 2.3 nM.
As for `Cc1c(C(F)(F)F)cn(C)c(=O)c1-c1ccc(C[C@H](NC(=O)c2c(F)cc(N3CCOC[C@@H]3C(F)(F)F)cc2F)C(=O)O)cc1` [Example 4, (S)-2-(2,6-difluoro-4-((R)-3-(trifluoromethyl)morpholino)benzamido)-3-(4-(1,4-dimethyl-2-oxo-5-(trifluoromethyl)-1,2-dihydropyridin-3-yl)phenyl)propanoic acid], the results for the EC50 in test [1] (Table 1) and in test [2] (Table 1) were 1.2 nM and 63.7 nM, respectively.
As for `CC[C@@H](Nc1cc(F)c(C(=O)N[C@@H](Cc2ccc(-n3c(=O)cc(C)n(C)c3=O)nc2)C(=O)O)c(F)c1)C(F)(F)F` [Example 43], the values for the EC50 in test [1] (Table 2) and in test [2] (Table 2) were 15.9 nM and 661 nM, respectively.
The like results for `Cc1c(-c2ccc(C[C@H](NC(=O)c3c(F)cc(N4CCOC[C@@H]4C(F)(F)F)cc3F)C(=O)O)cc2)c(=O)n(C)c(=O)n1C` [Example 37] were, in that order, 0.4 nM and 9.8 nM.
With `Cc1cc(N2CCOC[C@@H]2C(F)(F)F)cc(F)c1C(=O)N[C@@H](Cc1ccc(-n2c(=O)c3ccncc3n(C)c2=O)c(C(F)(F)F)c1)C(=O)O` (atropisomer, axis not shown) [Example 90], the results for the EC50 in test [1] (Table 2) and in test [2] (Table 2) were 0.7 nM and 9.7 nM, respectively.
In the case of `Cc1cc(N2CCOC[C@@H]2C(F)(F)F)cc(F)c1C(=O)N[C@@H](Cc1ccc(-n2c(=O)c3cc(C#N)ccc3n(C)c2=O)nc1)C(=O)O` [Example 74], the EC50 was determined as 0.14 nM in test [1] (Table 2) and 5.2 nM in test [2] (Table 2).
On to `Cc1cc(C(F)(F)F)c(-c2ccc(C[C@H](NC(=O)c3c(F)cc(N4CCOC[C@@H]4C(F)(F)F)cc3F)C(=O)O)cc2F)c(=O)n1C` [Example 6, (S)-2-(2,6-difluoro-4-((R)-3-(trifluoromethyl)morpholino)benzamido)-3-(4-(1,6-dimethyl-2-oxo-4-(trifluoromethyl)-1,2-dihydropyridin-3-yl)-3-fluorophenyl)propanoic acid], for which the EC50 in test [1] (Table 1) turned out to be 0.3 nM; in test [2] (Table 1), 9.9 nM.
For the compound `Cc1cc(C[C@H](NC(=O)c2c(C)cc(N3CCOC[C@@H]3C(F)(F)F)cc2F)C(=O)O)ccc1-c1nc(C)c(C)n(C)c1=O` [Example 42], the values for the EC50 in test [1] (Table 2) and in test [2] (Table 2) were 0.3 nM and 5.8 nM, respectively.
Consider `CC[C@@H](Nc1cc(F)c(C(=O)N[C@@H](Cc2ccc(-c3c(C)n(C)c(=O)n(C)c3=O)cc2)C(=O)O)c(F)c1)C(F)(F)F` [Example 32], for which the EC50 in test [1] (Table 2) stood at 1.2 nM; in test [2] (Table 2), 14.4 nM.
`CC[C@@H](Nc1cc(F)c(C(=O)N[C@@H](Cc2ccc(-c3c(C)c4cc(F)ccc4n(C)c3=O)cc2)C(=O)O)c(F)c1)C(F)(F)F` [Example 34]: the values for the EC50 in test [1] (Table 2) and in test [2] (Table 2) were 3.2 nM and 61.4 nM, respectively.
